Several values for one entry are separate records, joined by “and”; a condition that tells them apart may be missing. Identical values can stand only once. Inconclusive results and toxic doses are left out.
System: CD2F1 mice, L1210 leukemia ip, survival T/C
Experiment: NCI In Vivo Anticancer Drug Screen. Data for tumor model L1210 Leukemia (intraperitoneal) in CD2F1 (CDF1) mice
Conditions: endpoint: mean survival time, higher = longer survival
In short: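 Tumor-bearing mice (transplanted tumor) were split into treated and vehicle control groups, and the measured endpoint of each treated group was divided by that of its vehicle controls.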

[1] = dose: 25.0 mg/kg/injection, schedule: Q01DX009 (ip), vehicle: saline
[2] = dose: 25.0 mg/kg/injection, schedule: Q04DX003 (ip), vehicle: saline
[3] = dose: 100.0 mg/kg/injection, schedule: Q01DX009 (ip), vehicle: saline with Tween-80
[4] = dose: 100.0 mg/kg/injection, schedule: Q04DX003 (ip), vehicle: saline with Tween-80
[5] = dose: 200.0 mg/kg/injection, schedule: Q01DX009 (ip), vehicle: saline with Tween-80
[6] = dose: 200.0 mg/kg/injection, schedule: Q04DX003 (ip), vehicle: saline with Tween-80
[7] = dose: 400.0 mg/kg/injection, schedule: Q01DX009 (ip), vehicle: saline with Tween-80
[8] = dose: 400.0 mg/kg/injection, schedule: Q04DX003 (ip), vehicle: saline with Tween-80
[9] = dose: 100.0 mg/kg/injection, schedule: Q01DX001 (ip), vehicle: saline with Tween-80
[10] = dose: 200.0 mg/kg/injection, schedule: Q01DX001 (ip), vehicle: saline with Tween-80
[11] = dose: 400.0 mg/kg/injection, schedule: Q01DX001 (ip), vehicle: saline with Tween-80
[12] = dose: 100.0 mg/kg/injection, schedule: Q04DX002 (ip), vehicle: saline with Tween-80
[13] = dose: 200.0 mg/kg/injection, schedule: Q04DX002 (ip), vehicle: saline with Tween-80
[14] = dose: 400.0 mg/kg/injection, schedule: Q04DX002 (ip), vehicle: saline with Tween-80
[15] = dose: 100.0 mg/kg/injection, schedule: Q04DX003 (ip), vehicle: Klucel (hydroxypropylcellulose) (HPC)
[16] = dose: 200.0 mg/kg/injection, schedule: Q04DX003 (ip), vehicle: Klucel (hydroxypropylcellulose) (HPC)
[17] = dose: 400.0 mg/kg/injection, schedule: Q04DX003 (ip), vehicle: Klucel (hydroxypropylcellulose) (HPC)
[18] = dose: 12.5 mg/kg/injection, schedule: Q01DX005 (ip), vehicle: water
[19] = dose: 25.0 mg/kg/injection, schedule: Q01DX005 (ip), vehicle: water
[20] = dose: 50.0 mg/kg/injection, schedule: Q01DX005 (ip), vehicle: water
[21] = dose: 100.0 mg/kg/injection, schedule: Q01DX005 (ip), vehicle: water
[22] = dose: 200.0 mg/kg/injection, schedule: Q01DX005 (ip), vehicle: water
[23] = dose: 50.0 mg/kg/injection, schedule: Q01DX009 (ip), vehicle: saline with Tween-80
[24] = dose: 100.0 mg/kg/injection, schedule: Q04DX003 (ip), vehicle: saline
[25] = dose: 200.0 mg/kg/injection, schedule: Q04DX003 (ip), vehicle: saline

Structure (SMILES): O=[N+]([O-])c1cccc(C[n+]2ccccc2C2OCCO2)c1
- T/C (dose: 6.25 mg/kg/injection, schedule: Q01DX009 (ip), vehicle: saline): 101 % of control
- T/C (dose: 12.5 mg/kg/injection, schedule: Q01DX009 (ip), vehicle: saline): 101 % of control
- T/C (dose: 12.5 mg/kg/injection, schedule: Q04DX003 (ip), vehicle: saline): 104 % of control
- T/C [1]: 96 % of control
- T/C [2]: 114 % of control

Structure (SMILES): NC(=O)N/N=C1/CCCC2CCCCC12 (centres undefined)
- T/C (dose: 150.0 mg/kg/injection, schedule: Q04DX003 (ip), vehicle: saline with Tween-80): 93 % of control
- T/C (dose: 300.0 mg/kg/injection, schedule: Q04DX003 (ip), vehicle: saline with Tween-80): 89 % of control

Structure (SMILES): C/C(=N\Nc1ccc([N+](=O)[O-])cc1[N+](=O)[O-])c1ccc[nH]1
- T/C [3]: 87 % of control
- T/C [4]: 95 % of control
- T/C [5]: 97 % of control
- T/C [6]: 95 % of control
- T/C [7]: 93 % of control
- T/C [8]: 91 % of control

Structure (SMILES): CN(Cc1ccccc1)C(=O)C(=O)c1c[nH]c2ccccc12
- T/C [3]: 95 % of control
- T/C [4]: 98 % of control
- T/C [5]: 89 % of control
- T/C [6]: 87 % of control
- T/C [7]: 91 % of control
- T/C [8]: 90 % of control

Structure (SMILES): CC(C)OC(=O)Nc1ccccc1Cl
- T/C (dose: 100.0 mg/kg/injection, schedule: Q04DX003 (ip), vehicle: saline sonified): 92 % of control
- T/C (dose: 200.0 mg/kg/injection, schedule: Q04DX003 (ip), vehicle: saline sonified): 94 % of control
- T/C (dose: 400.0 mg/kg/injection, schedule: Q04DX003 (ip), vehicle: saline sonified): 94 % of control

Structure (SMILES): O=c1[nH]nc(-c2cccc3ccccc23)o1
- T/C [9]: 96 % of control
- T/C [10]: 99 % of control
- T/C [11]: 108 % of control

Structure (SMILES): [Cl][Sn]([c]1ccccc1)([c]1ccccc1)[c]1ccccc1
- T/C (dose: 2.5 mg/kg/injection, schedule: Q04DX003 (ip), vehicle: saline): 91 % of control
- T/C (dose: 5.0 mg/kg/injection, schedule: Q04DX003 (ip), vehicle: saline): 100 % of control
- T/C (dose: 10.0 mg/kg/injection, schedule: Q04DX003 (ip), vehicle: saline with Tween-80): 97 % of control
- T/C (dose: 10.0 mg/kg/injection, schedule: Q04DX003 (ip), vehicle: saline): 96 % of control

Structure (SMILES): O=C(COc1ccc(Cl)cc1Cl)Nc1ccccc1
- T/C [12]: 91 % of control
- T/C [13]: 95 % of control
- T/C [14]: 98 % of control

Structure (SMILES): [O-][n+]1c2c(cc3ccccc31)Cc1ccccc1-2
- T/C [15]: 98 % of control
- T/C [16]: 96 % of control
- T/C [17]: 93 % of control

Structure (SMILES): CCOC(=O)C1=C(C)NC(C)=C(C(=O)OCC)C1C
- T/C (dose: 50.0 mg/kg/injection, schedule: Q04DX003 (ip), vehicle: saline with Tween-80): 98 % of control and 100 % of control
- T/C [4]: 101 % of control and 103 % of control and 108 % of control
- T/C [6]: 95 % of control and 98 % of control and 104 % of control
- T/C [8]: 122 % of control

Structure (SMILES): CCOC(=O)c1ncn(C2OC(CO)C(O)C2O)c1N (centres undefined)
- T/C [18]: 97 % of control
- T/C [19]: 98 % of control
- T/C [20]: 103 % of control
- T/C [21]: 101 % of control
- T/C [22]: 97 % of control

Structure (SMILES): CCC(=O)c1ccc(O)c(O)c1
- T/C (dose: 25.0 mg/kg/injection, schedule: Q01DX009 (ip), vehicle: saline with Tween-80): 95 % of control
- T/C [23]: 96 % of control
- T/C [3]: 96 % of control and 100 % of control
- T/C [24]: 96 % of control
- T/C [25]: 105 % of control
- T/C (dose: 400.0 mg/kg/injection, schedule: Q04DX003 (ip), vehicle: saline): 92 % of control

Structure (SMILES): CN(CCO)C1=C(N2CC2)C(=O)C(N(C)CCO)=C(N2CC2)C1=O
- T/C (dose: 0.5 mg/kg/injection, schedule: Q01DX009 (ip), vehicle: saline): 115 % of control and 117 % of control
- T/C (dose: 1.0 mg/kg/injection, schedule: Q01DX009 (ip), vehicle: saline): 155 % of control
- T/C (dose: 1.5 mg/kg/injection, schedule: Q01DX009 (ip), vehicle: saline): 201 % of control and 211 % of control

Structure (SMILES): O=c1n(CCCl)c(=O)n(CCCl)c(=O)n1CCCl
- T/C [23]: 101 % of control
- T/C [3]: 100 % of control
- T/C [5]: 101 % of control

Structure (SMILES): O=C(COc1ccccc1)N(/N=C/c1ccccc1)C(=O)c1ccccc1
- T/C (dose: 100.0 mg/kg/injection, schedule: Q01DX009 (ip), vehicle: Klucel (hydroxypropylcellulose) (HPC)): 96 % of control
- T/C [15]: 94 % of control
- T/C (dose: 200.0 mg/kg/injection, schedule: Q01DX009 (ip), vehicle: Klucel (hydroxypropylcellulose) (HPC)): 96 % of control
- T/C [16]: 92 % of control
- T/C (dose: 400.0 mg/kg/injection, schedule: Q01DX009 (ip), vehicle: Klucel (hydroxypropylcellulose) (HPC)): 89 % of control
- T/C [17]: 94 % of control

Structure (SMILES): O=[N+]([O-])/C=C\c1cc2c3c(c1)CCCN3CCC2
- T/C (dose: 3.13 mg/kg/injection, schedule: Q01DX009 (ip), vehicle: saline with Tween-80): 105 % of control
- T/C (dose: 6.25 mg/kg/injection, schedule: Q01DX009 (ip), vehicle: saline with Tween-80): 97 % of control
- T/C (dose: 12.5 mg/kg/injection, schedule: Q01DX009 (ip), vehicle: saline with Tween-80): 100 % of control
- T/C (dose: 50.0 mg/kg/injection, schedule: Q01DX001 (ip), vehicle: saline with Tween-80): 105 % of control
- T/C [9]: 103 % of control

Structure (SMILES): Cn1c(=O)cc(C(=O)NCCCN2CCOCC2)c2ccccc21
- T/C [4]: 92 % of control
- T/C [6]: 96 % of control
- T/C [8]: 87 % of control

Structure (SMILES): O=c1[nH]cnc2snc(Cl)c12
- T/C [9]: 101 % of control
- T/C [12]: 92 % of control
- T/C [10]: 101 % of control
- T/C [13]: 92 % of control
- T/C [11]: 100 % of control
- T/C [14]: 87 % of control

Structure (SMILES): O=C(O)c1c(Cl)c(Cl)c(Cl)c(Cl)c1Cl
- T/C [4]: 98 % of control
- T/C [6]: 98 % of control
- T/C [8]: 98 % of control

Structure (SMILES): CCCCOC(=O)Nc1ccccn1
- T/C [12]: 101 % of control
- T/C [13]: 104 % of control

Structure (SMILES): Nc1cc(S(=O)(=O)c2ccc(/C=C/c3ccccc3)c(N)c2)ccc1/C=C/c1ccccc1
- T/C [3]: 93 % of control
- T/C [5]: 94 % of control and 88 % of control
- T/C [7]: 91 % of control

Structure (SMILES): c1cc(C2CCOCC2)ccn1
- T/C [23]: 109 % of control
- T/C [24]: 92 % of control
- T/C [25]: 90 % of control

Structure (SMILES): CC1(C)CC(NC(=O)CSc2ncnc3c2ncn3C2OC(CO)C(O)C2O)CC(C)(C)N1O (centres undefined)
- T/C [18]: 96 % of control
- T/C [19]: 94 % of control
- T/C [20]: 94 % of control
- T/C [21]: 102 % of control
- T/C [22]: 96 % of control

Structure (SMILES): OCC(O)C(O)C(O)C(SCc1ccccc1)SCc1ccccc1 (centres undefined)
- T/C [9]: 97 % of control
- T/C [10]: 93 % of control
- T/C [11]: 89 % of control

Structure (SMILES): C/C(=N/O)c1ccc(F)cc1
- T/C [3]: 100 % of control
- T/C [4]: 94 % of control and 97 % of control
- T/C [5]: 93 % of control and 95 % of control
- T/C [6]: 94 % of control
- T/C [7]: 94 % of control and 102 % of control
- T/C [8]: 89 % of control and 96 % of control

Structure (SMILES): COc1ccc(CC2=NCCc3cc(OC)c(OC)cc32)cc1OC
- T/C [1]: 95 % of control
- T/C [2]: 110 % of control
- T/C (dose: 50.0 mg/kg/injection, schedule: Q01DX009 (ip), vehicle: saline): 101 % of control
- T/C (dose: 50.0 mg/kg/injection, schedule: Q04DX003 (ip), vehicle: saline): 104 % of control
- T/C [24]: 96 % of control and 103 % of control

Structure (SMILES): Nc1ccc2ncccc2c1
- T/C (dose: 25.0 mg/kg/injection, schedule: Q01DX009 (ip), vehicle: other): 93 % of control
- T/C (dose: 50.0 mg/kg/injection, schedule: Q01DX009 (ip), vehicle: other): 95 % of control
- T/C (dose: 100.0 mg/kg/injection, schedule: Q01DX009 (ip), vehicle: other): 91 % of control

Structure (SMILES): CCOc1cccc(Cc2cn(Cc3cccc(NC(=O)c4ccc(S(=O)(=O)F)cc4)c3)c(=O)[nH]c2=O)c1
- T/C (dose: 75.0 mg/kg/injection, schedule: Q01DX001 (ip), vehicle: saline with Tween-80): 100 % of control
- T/C (dose: 150.0 mg/kg/injection, schedule: Q01DX001 (ip), vehicle: saline with Tween-80): 97 % of control

Structure (SMILES): CC1C(=O)C(=O)C(CCc2ccccc2)C1=O (centres undefined)
- T/C [3]: 97 % of control
- T/C [5]: 102 % of control
- T/C [7]: 109 % of control
